Data from patent US20110263478A1, “SUR1 INHIBITORS FOR THERAPY” (priority 2008, published 2011).

What was measured:
[1] = Tail tip bleeding time in uninjured rats; format: in vivo, rat; conditions: for effect on bleeding time: same infusion dose
Description: Bleeding times were measured using tail tip bleeding as described (Lorrain et al., 2003).

[2] = tested on: rats with spinal cord injury (SCI); experiment: Rat cervical SCI model: histology, capillaries and lesion size; format: in vivo
Description: (§1) SCI injury model. This study was performed in accordance with the guidelines of the Institutional Animal Care and Use Committee. Adult female Long-Evans rats (275-350 gm) were anesthetized (Ketamine, 60 mg/kg plus Xylazine, 7.5 mg/kg, i.p.). The dura at C4-5 was exposed via a left hemilaminectomy. A hemi-cervical spinal cord contusion was created using a blunt force impactor (1.3-mm impactor head driven by a 10 gm weight dropped vertically 25 mm) (Soblo sky et al., 2001; Gensel et al., 2006). After SCI, animals were given 10 ml of glucose-free normal saline s.q. Rectal temperature was maintained at ˜37° C. using a servo-controlled warming blanket. Blood gases and serum glucose 10-15 min post-SCI were: pO2, 95±6 mm Hg; pCO2, 46±3 mm Hg; pH, 7.33±0.01; glucose 258±17 mg/dl in controls and pO2, 96±7 mm Hg; pCO2, 45±2 mm Hg; pH, 7.37±0.01; glucose 242±14 mg/dl in glibenclamide-treated animals.
(§2) Drug delivery. […] During the course of the project, slightly different formulations of drug were used, with the best results obtained using stock solutions made by placing 50 mg (or 25 mg) of drug into 10 ml DMSO, and infusion solutions made by placing 400 μl (or 800 μl) stock into 4.6 ml (or 4.2 ml) unbuffered saline (0.9% NaCl) and adjusting the pH to ˜8.5 using 0.1 N NaOH.
Lesion size. At 7 d post-SCI, cords were paraffin sectioned and stained with H&E. Lesion volumes were calculated from lesion areas measured on serial sections every 250 μm.
Immunohistochemistry. Cryosections were immunolabeled (Chen et al., 2003; Simard et al., 2006) using primary antibodies directed against SUR1 (Santa Cruz, C-16; 1:200; 1 h at RT, 48 h at 4° C.), SUR2 (Santa Cruz, H-80; 1:200; 1 h at RT, 48 h at 4° C.), GFAP (Sigma, C-9205; 1:500), and vimentin (Sigma, monoclonal CY3 conjugated; 1:100). Quantitative immunofluorescence was performed as described (Gerzanich et al., 2003).

[3] = tested on: rats with percussion-TBI; experiment: Percussion-TBI rats: lesion size and hippocampal histology; format: in vivo, rat; conditions: 7 days post-TBI
Excerpt: Young adult male Long-Evans rats, 240-280 gm, were studied. Rats were anesthetized (Ketamine and Xylazine) and physiological parameters including temperature and blood gases were maintained within appropriate physiological ranges. With the head fixed in a stereotaxic frame, a 6-mm circular craniectomy was created abutting the sagittal and lambdoidal sutures. A posterior location was chosen to emphasize damage to underlying hippocampus (Vink et al., 2001; Floyd et al., 2002). […] Sham controls underwent craniectomy without percussion.

[4] = Testing of glibenclamide doses for effect on serum glucose in rats; format: in vivo, rat; conditions: dose1-dose4 (loading 2.5-20 μg/kg i.p., infusion 75-600 ng/hr s.q.); uninjured, stroke and SCI rats
[5] = tested on: rats with spinal cord injury (SCI); experiment: Rat cervical SCI model: hemorrhage / extravasated blood in cord; format: in vivo; conditions: 200 ng/h s.q.
Description: Constant infusion of a low-dose of drug was used to achieve sustained occupancy of only high-affinity receptors.
as §1, §2
For in vivo gene suppression of SUR1, we used oligodeoxynucleotides that were phosphorothioated at 4 distal bonds to protect against endogenous nucleases (35). Within a few min of SCI, mini-osmotic pumps (Alzet 2002, 0.5 μl/h; Durect Corporation) with jugular vein catheters were implanted that delivered either scrambled sequence ODN (Scr-ODN) (5′-[…]-3′; SEQ ID NO:1) or antisense ODN (AS-ODN) (5′-[…]-3′; SEQ ID NO:2) (Yokoshiki et al., 1999) in PBS at a rate of 1 mg/rat/24 h.
Tissue blood. Rats were sacrificed at various times after SCI (n=5-11 rats/group), were perfused with heparinized saline to remove intravascular blood, and 5-mm segments of cord encompassing the lesion were homogenized and processed as described (Choudhri et al., 1997).

## COc1ccc(Cl)cc1C(=O)NCCc1ccc(S(=O)(=O)NC(=O)NC2CCCCC2)cc1 [glibenclamide]
[1]; n=3-5, P=0.6
  tail bleeding time: 21.5 ± 3.1 s
[1]
  effect on bleeding time: no effect
[1]; listed as Glibenclamide
  effect on bleeding time: did not affect
[2]; 24 h post-SCI, vs controls
  lesion, reactive gliosis and myelin (GFAP and myelin labeling): smaller lesions, less reactive gliosis and better myelin preservation
[2]; 7 d post-SCI
  lesion volume, reduction compared to controls: 3 fold
[2]; post-SCI, vs controls
  vimentin(+) capillaries in region of injury: the capillaries were elongated and appeared more normal
[3]
  hippocampus on Nissl stained sections: sparing of hippocampus, including sparing of neurons in CA1, CA3 and dentate gyrus regions
[3]; control 8.2±1.3, P=0.025
  lesion area on coronal sections at epicenter of injury: 4.4±0.8 mm^2
[4]
  effect of doses on serum glucose: only the highest are hypoglycemogenic, but only mildly so
[5]; 24 h post-SCI, vs vehicle
  hemorrhage in cord on inspection: visibly less hemorrhage
[5]; during the 24 h after SCI
  extravasated blood in tissue homogenates: little increase in extravasated blood
